Results: patent EP4596561A1, “PHOSPHORUS-CONTAINING COMPOUND, PHARMACEUTICAL COMPOSITION AND USE THEREOF” (Suzhou Genhouse Bio Co., Ltd., priority 2022, dated 2024)
Like-named read-outs stand apart in the source and are kept apart here.

Columns and labels:
[1] = tested on: YAP-TEAD transcription complex; assay: YAP-TEAD reporter gene assay (dual luciferase, stably transfected 293T cells); type: cell-based; conditions: Homo sapiens, HEK-293T
Method: YAP-TEAD reporter gene The YAP-TEAD reporter gene assay was performed as follows. Firstly, the 8xGTIIC promoter sequence ([…] GTACTGTTGGTAAA) was constructed into a pGL4.20(luc2-Puro) plasmid, and the TK promoter ([…]) unrelated to the hippo pathway was constructed into a pGL4.78(hRlucCP/Hygro) plasmid, thereby constructing stably transfected 293T cells that can stably and continuously express the transcriptional activity of the YAP-TEAD transcription complex. After selection and identification of individual clones, the clones were grown and maintained in a DMEM medium containing 10% fetal bovine serum, penicillin-streptomycin solution, 1 µg/mL puromycin, and 150 µg/mL hygromycin. To perform reporter gene assays with the compounds to be tested, the well-growing cells described above were plated in a 384-well plate at a cell density of 3000 cells per well, with 90 µL per well. The periphery was sealed with an appropriate amount of PBS to prevent evaporation of water from the peripheral wells. Administration was performed on the next day after the cell plating. The test compounds were added at different concentration gradients, and three replicate wells were set for each concentration point. The compound concentration started at 5 µM and was diluted seven times with a 5-fold gradient. A corresponding negative control group treated with DMSO was also set up. After 24 h of drug treatment, the detection reagents were prepared first. The Dual-Lumi™ Firefly luciferase detection reagent and Dual-Lumi™ Renilla luciferase detection buffer were dissolved and brought to room temperature. […]. According to the amount of 100 µL of Dual-Lumi™ Renilla luciferase detection working solution required for the detection of each sample, an appropriate amount of Dual-Lumi™ Renilla luciferase detection working solution was prepared. […]. The cell culture plate was taken out and allowed to equilibrate at room temperature for 10 min (usually no more than 30 min). Then, 100 µL of Dual-Lumi™ Firefly luciferase detection reagent was added to each well of a 96-well plate (25 µL per well for the 384-well plate), and the mixture was mixed well. The mixture was then incubated at room temperature (about 25 °C) for 10 min to stabilize the luminescent signal, and then chemiluminescence was detected using a multimode microplate reader with a chemiluminescence detection function. Subsequently, the detection of Renilla luciferase began. Firstly, 100 µL of Dual-Lumi™ Renilla luciferase detection working solution was added to each well of a […] (25 µL per well for the 384-well plate), and the mixture was mixed well. The mixture was then incubated at room temperature (about 25 °C) for 10 min to stabilize the luminescent signal. Finally, chemiluminescence was detected using a multimode microplate reader with a chemiluminescence detection function. The obtained data were analyzed using GraphPad Prism 7.0 software. A sigmoidal dose-survival rate curve was plotted using a non-linear regression model, and the IC50 values were calculated.

[2] = tested on: NCI-H2452 (NF2 wide-type); assay: Inhibition of cell proliferation (CellTiter-Lumi); type: cell-based; conditions: Homo sapiens, 72 h + another 72 h treatment
Method: (§1) NCI-H2052 (NF2 mutant), NCI-H226 (NF2 mutant), NCI-H2452 (NF2 wide-type), NCI-H28 (NF2 wide-type), and MSTO-211H (NF2 wide-type) cells were cultured in RPMI 1640 complete media.
(§2) The normally growing cells described above were digested with a trypsin cell-digesting solution, centrifuged, counted, and then plated in a 96-well plate at a density of 1000 cells per well. Administration was performed 24 h after the cell plating. Inhibitors at different concentration gradients were added at 10 µL per well, and three replicate wells were set for each concentration point. The starting concentration was 20 µM and diluted 8 times with a 4-fold gradient. A corresponding negative control group treated with 0.1% DMSO was also set up. After 72 h of drug treatment, the cell culture plate to be tested was taken out of the incubator. The culture medium in the 96-well plate was pipetted, and 190 µL of fresh RPMI 1640 complete medium was added. Another administration was performed, and the cells were cultured for another 72 h. The 96-well plate was taken out and allowed to equilibrate at room temperature for 10 min. […] After shaking for two minutes, the mixture was reacted at room temperature for 10 min. Then, 150 µL of liquid was pipetted from the transparent 96-well plate and transferred to a white 96-well plate for chemiluminescence reading. The background value was subtracted from the value for each well to calculate the cell survival rate. Survival rate (%) = […]. Sample is the chemiluminescence of the drug-treated group, and Vehicle is the […] of the DMSO control group. A sigmoidal dose-survival rate curve was plotted using a non-linear regression model in the GraphPad Prism 7.0 software, and the IC50 values or GI50 values were calculated.

[3] = tested on: NCI-H28 (NF2 wide-type); assay: Inhibition of cell proliferation (CellTiter-Lumi); type: cell-based; conditions: Homo sapiens, 72 h + another 72 h treatment
Method: as §1, §2

[4] = tested on: MSTO-211H (NF2 wide-type); assay: Inhibition of cell proliferation (CellTiter-Lumi); type: cell-based; conditions: Homo sapiens, 72 h + another 72 h treatment
Method: as §1
The normally growing cells described above were digested with a trypsin cell-digesting solution, centrifuged, counted, and then plated in a 96-well plate at a density of 1000 cells per well. Administration was performed 24 h after the cell plating. Inhibitors at different concentration gradients were added at 10 µL per well, and three replicate wells were set for each concentration point. The starting concentration was 20 µM and diluted 8 times with a 4-fold gradient. A corresponding negative control group treated with 0.1% DMSO was also set up. After 72 h of drug treatment, the cell culture plate to be tested was taken out of the incubator. The culture medium in the 96-well plate was pipetted, and 190 µL of fresh RPMI 1640 complete medium was added. Another administration was performed, and the cells were cultured for another 72 h. The 96-well plate was taken out and allowed to equilibrate at room temperature for 10 min. The medium in the 96-well plate was pipetted, and 200 µL of CellTiter-Lumi™ luminescent cell viability detection solution (mixed with a medium in a ratio of 1:1) was added. After shaking for two minutes, the mixture was reacted at room temperature for 10 min. Then, 150 µL of liquid was pipetted from the transparent 96-well plate and transferred to a white 96-well plate for chemiluminescence reading. The background value was subtracted from the value for each well to calculate the cell survival rate. Survival rate (%) = […]. Sample is the chemiluminescence of the drug-treated group, and Vehicle is the […] of the DMSO control group. A sigmoidal dose-survival rate curve was plotted using a non-linear regression model in the GraphPad Prism 7.0 software, and the IC50 values or GI50 values were calculated.

[5] = Stability test in liver microsomes; type: in vitro ADME; conditions: Human liver microsomes, 0.5 mg/mL, 1.0 µM substrate
Method: (§3) Phase I metabolic stability of the test compounds in liver microsomes of CD-1 mice, Sprague-Dawley rats, and humans was assessed.
(§4) The animal and human liver microsomes used in the test system were purchased from Xenotech, Corning, or other qualified suppliers and stored in a freezer at a temperature below -60 °C prior to use. The information of the animal and human liver microsomes used was as follows:
(§5) The test samples and the reference compounds were separately incubated with animal and human liver microsomes at 37±1 °C for a period of incubation time of up to 60 min. The samples were taken out at the indicated time points, and the reaction was stopped with acetonitrile or another organic solvent containing an internal standard. After centrifugation, the resulting supernatants were assayed by the liquid chromatography-tandem mass spectrometry (LC-MS/MS) method.
(§6) Microsomes of each species were diluted into a 2× working solution with a 100 mM potassium phosphate buffer. […]
(§7) Incubation was performed in a 96-well plate. Eight incubation plates were prepared and designated T0, T5, T15, T30, T45, T60, Blank60, and NCF60, respectively. The first 6 plates corresponded to reaction time points of 0 min, 5 min, 15 min, 30 min, 45 min, and 60 min, respectively. No test sample or reference compound was added to the Blank60 plate, and samples were taken after 60 min of incubation. In the NCF60 plate, incubation was performed for 60 min using the potassium phosphate buffer instead of the NADPH regeneration system solution. Three replicates were made for samples in all conditions.
(§8) The microsomes and the test sample or reference compound were mixed, and then the incubation plates Blank60, T5, T15, T30, T45, and T60 except for T0 and NCF60 were placed in a 37 °C water bath for pre-incubation for about 10 min. In the incubation plate T0, a stop solution was first added, followed by the addition of the NADPH regeneration system working solution, and 98 µL of the potassium phosphate buffer was added to each sample well of the incubation plate NCF60 to initiate the reaction. After the pre-incubation of the incubation plates Blank60, T5, T15, T30, T45, and T60 was completed, 98 µL of the NADPH regeneration system working solution was added to each sample well to initiate the reaction. The reaction temperature was 37±1 °C, the final volume of the reaction was 200 µL, and the reaction system included 0.5 mg/mL microsomes, 1.0 µM substrate, 1 mM NADP, 6 mM ISO, and 1 unit/mL IDH.
(§9) At 5 min, 15 min, 30 min, 45 min, and 60 min, a cold stop solution containing an internal standard was added to the reaction plate to stop the reaction.
(§10) All the reaction plates after the reaction was stopped were shaken well and centrifuged at 3220× g at 4 °C for 20 min. After the supernatant was diluted at a certain ratio, LC-MS/MS analysis was performed.
(§11) Sample analysis was performed by the liquid chromatography-tandem mass spectrometry (LC-MS/MS) method without standard curves and quality control samples. Semi-quantitative determination was performed according to the ratio of the analyte peak area to the internal standard peak area. The retention times of the analyte and internal standard, the chromatogram acquisition, and chromatogram integration were processed using the Analyst software (Sciex, Framingham, Massachusetts, USA).
(§12) According to the well stir model, the hepatic intrinsic clearance and hepatic clearance can be converted through the following formula. CL(liver) = (CLint(liver)×Qh)/(CLint(liver)+Qh) [formula]

[6] = Stability test in liver microsomes; type: in vitro ADME, SD rat; conditions: rat liver microsomes, 0.5 mg/mL, 1.0 µM substrate
Method: as §3, §4, §5, §6, §7, §8, §9, §10, §11, §12

[7] = Stability test in liver microsomes; type: in vitro ADME, CD-1 mouse; conditions: mouse liver microsomes, 0.5 mg/mL, 1.0 µM substrate
Method: as §3, §4, §5, §6, §7, §8, §9, §10, §11, §12

[8] = Pharmacokinetic test in mice (low dose); type: in vivo, Balb/c mice; conditions: mouse, in vivo, mice; for AUC(0-t): read-out: AUClast; for half-life: read-out: T1/2 (converted)
Method: The compounds of the present disclosure were administered to Balb/c mice by single intravenous injection and oral gavage, and the plasma of the mice at each time point was collected. The concentration of the compounds to be tested in BALB/C plasma was detected using the LC-MS/MS analysis method, and pharmacokinetic analysis was performed.
The mixture was vortexed, shaken, and ultrasonicated. The remaining volume of 25% sulfobutylether-β-cyclodextrin (sterilized) was added to prepare the final concentration solution or suspension.
Intravenous injection formulations will be directly administered in animal experiments without filtration. The IV drug preparation vials were disinfected in an infrared sterilization cabinet one day in advance.
Intravenous injection: Administration was performed via the tail vein. After the needle was inserted, the syringe was slowly […].
Gavage: Gavage needle and syringe of an appropriate type were selected. The gavage needle was inserted from the root of the tongue into the esophagus until it reached near the cardia of the stomach, then the drug formulation was injected, and the gavage needle was withdrawn. When disposable plastic gavage needles were used, one needle was used for each group.
At each time point, 60 µL of whole blood was collected from the submandibular vein or tail vein (except for the IV group). The blood sample was added to a pre-cooled anticoagulant blood collection tube containing anticoagulant EDTA-K2 (1 µL, 15% EDTA-K2 solution), placed on wet ice, and centrifuged (3000 g, 4 °C, 10 min) within 1 h. The plasma was immediately collected after centrifugation, transferred to an EP tube, and stored at -90 °C to -60 °C.
Plasma concentration detection: A developed LC-MS/MS method was used to detect the compounds in plasma.
The plasma concentration-time data were analyzed using a non-compartmental model in the Phoenix® WinNonlin® (Version 8.2, Pharsight, Mountain View, CA).

[9] = 293T reporter cells, 24 h of drug treatment, read-out: IC50

Structure (SMILES) | IC50 [1, 9] | IC50 [2] | IC50 [3] | IC50 [4] | also measured
Cn1cc2c3cc(P(C)(C)=O)ccc3n(-c3ccc(C(F)(F)F)cc3)c2n1 [Example 16] | – | – | – | – | IC50 ([1]; 24 h): 31.8 nM; half-life at 1 µM [5]: > 2.42 h; half-life at 1 µM [6]: > 2.42 h; half-life at 1 µM [7]: > 2.42 h; MRT ([8]; IV 2 mg/kg): 3.6 h; AUC(0-t) ([8]; IV 2 mg/kg): 5.44 µM·h; clearance ([8]; IV 2 mg/kg, read-out: Cl (converted)): 13.3 mL/min/kg; half-life ([8]; IV 2 mg/kg): 2.7 h; MRT ([8]; PO 10 mg/kg): 5.3 h; bioavailability ([8]; PO 10 mg/kg vs IV 2 mg/kg, read-out: F%): 206%; AUC(0-t) ([8]; PO 10 mg/kg): 63.5 µM·h; Cmax ([8]; PO 10 mg/kg, read-out: Cmax): 7.17 µM; half-life ([8]; PO 10 mg/kg): 3.1 h
CP(C)(=O)c1cnc(Nc2ccc(C(F)(F)F)cc2)c(-n2cc(C(F)(F)F)cn2)c1 [Example 20] | 439 nM | – | > 20000 nM | > 1250 nM | –
CP(C)(=O)c1cnc(Nc2ccc(C(F)(F)F)cc2)c(-n2cccn2)c1 [Example 18] | – | > 1250 nM | > 20000 nM | > 1250 nM | –

Continued, in another order:

IC50 [1, 9] | IC50 [2] | IC50 [3] | Structure (SMILES) | IC50 [4] | also measured
344 nM | > 20000 nM | > 5000 nM | Cn1cnc(-c2cc(P(C)(C)=O)ccc2Nc2ccc(C(F)(F)F)cn2)c1 [Example 13] | > 20000 nM | –
– | > 5000 nM | > 5000 nM | CP(C)(=O)c1ccc2c(c1)c1nccnc1n2-c1ccc(C(F)(F)F)cc1 [Example 19] | 628 nM | –
